Like-named read-outs stand apart in the source and are kept apart here.
Molecular target: T1, LRRK2 (endogenous, HiBit tagged) (Homo sapiens, UniProt Q5S007)
T1 construct: endogenous in cells; host or cells: HEK293 cells with HiBit knock-in at the endogenous LRRK2 locus, stably expressing firefly luciferase
Test: Endogenous LRRK2 degradation assay, endogenous gene C-terminally HiBit-tagged in HEK293 cells (Nano-Glo Dual Luciferase)
Format: cell-based
Settings: endogenous HiBit-tagged LRRK2 in HEK293 cells, 24 hours treatment
In short: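 LRRK2-HiBit quantified via Nano-Glo Dual Luciferase in HEK293 knock-in cells co-expressing firefly luciferase, after 24 h exposure to compound (1 μM final top, 1:3, 11 points). Values normalised to DMSO median per plate and curve-fitted; Alamar Blue viability run alongside.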

[1] = read-out: **Endogenous WT Dmax (%)

T1 sequence (Q5S007 whole entry): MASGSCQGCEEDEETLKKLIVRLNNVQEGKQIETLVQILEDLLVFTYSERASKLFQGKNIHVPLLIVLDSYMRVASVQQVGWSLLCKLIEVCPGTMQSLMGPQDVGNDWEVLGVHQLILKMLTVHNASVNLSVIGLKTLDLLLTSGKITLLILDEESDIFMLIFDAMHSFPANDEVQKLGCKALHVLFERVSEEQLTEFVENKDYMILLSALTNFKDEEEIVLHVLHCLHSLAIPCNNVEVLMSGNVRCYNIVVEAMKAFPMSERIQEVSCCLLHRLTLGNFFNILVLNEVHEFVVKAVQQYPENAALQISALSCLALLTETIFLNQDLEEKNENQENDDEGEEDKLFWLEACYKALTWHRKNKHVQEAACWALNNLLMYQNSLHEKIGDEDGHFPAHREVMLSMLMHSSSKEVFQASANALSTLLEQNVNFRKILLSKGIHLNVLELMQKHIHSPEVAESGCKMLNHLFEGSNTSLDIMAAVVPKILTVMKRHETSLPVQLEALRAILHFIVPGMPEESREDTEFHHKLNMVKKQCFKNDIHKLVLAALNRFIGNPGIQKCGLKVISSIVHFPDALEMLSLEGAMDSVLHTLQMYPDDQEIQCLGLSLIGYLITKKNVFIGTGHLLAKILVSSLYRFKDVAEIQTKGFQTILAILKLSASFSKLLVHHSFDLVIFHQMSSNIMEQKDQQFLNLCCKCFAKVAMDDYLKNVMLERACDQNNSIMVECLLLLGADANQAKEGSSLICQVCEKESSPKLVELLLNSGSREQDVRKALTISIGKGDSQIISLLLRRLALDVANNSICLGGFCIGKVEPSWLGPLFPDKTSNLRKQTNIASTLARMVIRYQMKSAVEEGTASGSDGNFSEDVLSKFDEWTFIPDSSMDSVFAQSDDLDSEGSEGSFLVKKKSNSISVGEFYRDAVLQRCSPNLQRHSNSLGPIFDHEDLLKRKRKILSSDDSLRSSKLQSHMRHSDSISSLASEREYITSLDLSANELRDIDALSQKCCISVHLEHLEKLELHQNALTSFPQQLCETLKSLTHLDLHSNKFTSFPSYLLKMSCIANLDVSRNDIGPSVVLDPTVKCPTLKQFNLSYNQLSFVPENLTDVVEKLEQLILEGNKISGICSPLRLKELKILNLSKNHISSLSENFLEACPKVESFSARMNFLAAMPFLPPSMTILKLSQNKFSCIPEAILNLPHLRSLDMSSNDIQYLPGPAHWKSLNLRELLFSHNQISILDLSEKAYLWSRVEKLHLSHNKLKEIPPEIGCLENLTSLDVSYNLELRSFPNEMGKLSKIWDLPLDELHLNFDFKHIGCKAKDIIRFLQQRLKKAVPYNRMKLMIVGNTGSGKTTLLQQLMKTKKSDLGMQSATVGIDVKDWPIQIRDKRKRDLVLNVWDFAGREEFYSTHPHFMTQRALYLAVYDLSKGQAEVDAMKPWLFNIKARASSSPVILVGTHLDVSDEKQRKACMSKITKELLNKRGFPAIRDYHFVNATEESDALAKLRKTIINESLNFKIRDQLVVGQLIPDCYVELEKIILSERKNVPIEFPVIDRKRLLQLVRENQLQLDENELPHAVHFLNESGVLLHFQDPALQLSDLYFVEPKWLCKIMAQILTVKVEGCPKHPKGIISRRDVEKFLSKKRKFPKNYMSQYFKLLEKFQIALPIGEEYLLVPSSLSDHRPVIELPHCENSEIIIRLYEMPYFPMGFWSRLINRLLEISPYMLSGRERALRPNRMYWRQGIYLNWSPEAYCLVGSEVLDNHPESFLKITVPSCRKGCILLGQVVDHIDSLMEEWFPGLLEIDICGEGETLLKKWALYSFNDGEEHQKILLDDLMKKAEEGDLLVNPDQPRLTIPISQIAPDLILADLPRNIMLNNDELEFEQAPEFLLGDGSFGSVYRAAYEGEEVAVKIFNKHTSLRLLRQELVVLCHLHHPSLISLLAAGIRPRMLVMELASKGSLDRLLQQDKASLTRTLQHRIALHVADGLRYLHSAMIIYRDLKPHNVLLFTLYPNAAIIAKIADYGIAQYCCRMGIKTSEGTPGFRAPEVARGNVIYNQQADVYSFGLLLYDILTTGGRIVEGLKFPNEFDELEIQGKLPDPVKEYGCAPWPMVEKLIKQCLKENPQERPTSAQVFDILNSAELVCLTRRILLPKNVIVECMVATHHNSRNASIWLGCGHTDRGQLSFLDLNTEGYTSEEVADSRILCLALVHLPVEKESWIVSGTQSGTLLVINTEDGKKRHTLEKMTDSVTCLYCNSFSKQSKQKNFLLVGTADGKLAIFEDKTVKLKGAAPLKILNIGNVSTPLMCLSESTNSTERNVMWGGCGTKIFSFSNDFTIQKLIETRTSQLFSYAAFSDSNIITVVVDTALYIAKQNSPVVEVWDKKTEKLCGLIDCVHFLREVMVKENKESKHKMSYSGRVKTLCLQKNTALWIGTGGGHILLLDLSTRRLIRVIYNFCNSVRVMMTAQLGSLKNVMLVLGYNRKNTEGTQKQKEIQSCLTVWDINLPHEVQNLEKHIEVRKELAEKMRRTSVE

Structure (SMILES)	DC50 (read-out: Endogenous WT DC50) [nM]	Dmax (read-out: Endogenous WT Dmax) [%]	Dmax [1] [%]	DC50 (read-out: *Endogenous WT DC50) [nM]
COc1c(N2CCC(CN3CCN(CC4CCN(c5cc(-c6n[nH]c7cnc(OC8(C)CC8)cc67)ncn5)CC4)C(C)(C)C3)CC2)ccc2c1CN(C1CCC(=O)NC1=O)C2=O (stereo not shown) [Compound 250, 3-{5-[4-({3,3-dimethyl-4-[(1-{6-[5-(1-methylcyclopropoxy)-1H-pyrazolo[3,4-c]pyridin-3-yl]pyrimidin-4-yl}piperidin-4-yl)methyl]piperazin-1-yl}methyl)piperidin-1-yl]-4-methoxy-1-oxo-2,3-dihydro-1H-isoindol-2-yl}piperidine-2,6-dione]	< 10	50 to 70	–	–
COc1c(N2CCC(CN3CCN(CC4CCN(c5cc(-c6n[nH]c7ccc(OC8(C)CC8)cc67)ncn5)CC4)C(C)(C)C3)CC2)ccc2c1CN(C1CCC(=O)NC1=O)C2=O (stereo not shown) [Compound 251, 3-{5-[4-({3,3-dimethyl-4-[(1-{6-[5-(1-methylcyclopropoxy)-1H-indazol-3-yl]pyrimidin-4-yl}piperidin-4-yl)methyl]piperazin-1-yl}methyl)piperidin-1-yl]-4-methoxy-1-oxo-2,3-dihydro-1H-isoindol-2-yl}piperidine-2,6-dione]	< 10	50 to 70	–	–
COc1c(N2CCN(C[C@H]3CC[C@H](OC4CCN(c5cc(-c6[nH]nc7ccc(OC8(C)CC8)cc67)ncn5)CC4)CC3)CC2)ccc2c1CN(C1CCC(=O)NC1=O)C2=O (stereo partly shown) [Compound 252, 3-[4-methoxy-1-oxo-5-(4-{[(1r,4r)-4-[(1-{6-[5-(1-methylcyclopropoxy)-2H-indazol-3-yl]pyrimidin-4-yl}piperidin-4-yl)oxy]cyclohexyl]methyl}piperazin-1-yl)-2,3-dihydro-1H-isoindol-2-yl]piperidine-2,6-dione]	< 10	50 to 70	–	–
COc1c(N2CCC(CN3CCN(CC4CCN(c5cc(-c6n[nH]c7cnc(OC8(C)CC8)cc67)ncn5)CC4)CC3)CC2)ccc2c1CN(C1CCC(=O)NC1=O)C2=O (stereo not shown) [Compound 253, 3-{4-methoxy-5-[4-({4-[(1-{6-[5-(1-methylcyclopropoxy)-1H-pyrazolo[3,4-c]pyridin-3-yl]pyrimidin-4-yl}piperidin-4-yl)methyl]piperazin-1-yl}methyl)piperidin-1-yl]-1-oxo-2,3-dihydro-1H-isoindol-2-yl}piperidine-2,6-dione]	< 10	50 to 70	–	–
CC1(Oc2cc3c(-c4cc(N5CCC(O[C@H]6CC[C@H](CN7CCN(c8ccc9c(c8F)CN(C8CCC(=O)NC8=O)C9=O)CC7)CC6)CC5)ncn4)n[nH]c3cn2)CC1 (stereo partly shown) [Compound 254, 3-[4-fluoro-1-oxo-5-(4-{[(1r,4r)-4-[(1-{6-[5-(1-methylcyclopropoxy)-1H-pyrazolo[3,4-c]pyridin-3-yl]pyrimidin-4-yl}piperidin-4-yl)oxy]cyclohexyl]methyl}piperazin-1-yl)-2,3-dihydro-1H-isoindol-2-yl]piperidine-2,6-dione]	< 10	50 to 70	–	–
COc1c(N2CCC(CN3CCN(CC4CCN(c5cc(-c6n[nH]c7ccc(OC8(C)CC8)cc67)ncn5)CC4)[C@H](C)C3)CC2)ccc2c1CN(C1CCC(=O)NC1=O)C2=O (stereo partly drawn) [Compound 255, 3-[4-methoxy-5-(4-{[(3R)-3-methyl-4-[(1-{6-[5-(1-methylcyclopropoxy)-1H-indazol-3-yl]pyrimidin-4-yl}piperidin-4-yl)methyl]piperazin-1-yl]methyl}piperidin-1-yl)-1-oxo-2,3-dihydro-1H-isoindol-2-yl]piperidine-2,6-dione]	< 10	50 to 70	–	–
COc1c(N2CCC(CN3CCN(CC4CCN(c5cc(-c6n[nH]c7ccc(OC8(C)CC8)cc67)ncn5)CC4)[C@@H](C)C3)CC2)ccc2c1CN(C1CCC(=O)NC1=O)C2=O (stereo partly drawn) [Compound 256, 3-[4-methoxy-5-(4-{[(3S)-3-methyl-4-[(1-{6-[5-(1-methylcyclopropoxy)-1H-indazol-3-yl]pyrimidin-4-yl}piperidin-4-yl)methyl]piperazin-1-yl]methyl}piperidin-1-yl)-1-oxo-2,3-dihydro-1H-isoindol-2-yl]piperidine-2,6-dione]	< 10	50 to 70	–	–
COc1c(N2CCC(CN3CCN(CC4CCN(c5cc(-c6n[nH]c7cnc(OC8(C)CC8)cc67)ncn5)CC4)[C@H](C)C3)CC2)ccc2c1CN(C1CCC(=O)NC1=O)C2=O (stereo partly drawn) [Compound 257, 3-[4-methoxy-5-(4-{[(3R)-3-methyl-4-[(1-{6-[5-(1-methylcyclopropoxy)-1H-pyrazolo[3,4-c]pyridin-3-yl]pyrimidin-4-yl}piperidin-4-yl)methyl]piperazin-1-yl]methyl}piperidin-1-yl)-1-oxo-2,3-dihydro-1H-isoindol-2-yl]piperidine-2,6-dione]	–	–	50 to 70	< 10
CC1(Oc2cc3c(-c4cc(N5CCN(C[C@H]6CC[C@H](OC7CCN(c8ccc9c(c8F)CN(C8CCC(=O)NC8=O)C9=O)CC7)CC6)CC5)ncn4)n[nH]c3cn2)CC1 (stereo partly shown) [Compound 258, 3-[4-fluoro-1-oxo-5-(4-{[(1r,4r)-4-[(4-{6-[5-(1-methylcyclopropoxy)-1H-pyrazolo[3,4-c]pyridin-3-yl]pyrimidin-4-yl}piperazin-1-yl)methyl]cyclohexyl]oxy}piperidin-1-yl)-2,3-dihydro-1H-isoindol-2-yl]piperidine-2,6-dione]	–	–	50 to 70	< 10
CC1(Oc2cc3c(-c4cc(N5CCC(O[C@H]6CC[C@H](CN7CCN(c8ccc9c(c8F)CN(C8CCC(=O)NC8=O)C9=O)CC7)CC6)CC5)ncn4)n[nH]c3cc2F)CC1 (stereo partly shown) [Compound 259, 3-[4-fluoro-1-oxo-5-(4-{[(1r,4r)-4-[(1-{6-[6-fluoro-5-(1-methylcyclopropoxy)-1H-indazol-3-yl]pyrimidin-4-yl}piperidin-4-yl)oxy]cyclohexyl]methyl}piperazin-1-yl)-2,3-dihydro-1H-isoindol-2-yl]piperidine-2,6-dione]	–	–	50 to 70	< 10
CC1(Oc2cc3c(-c4cc(N5CCN(C[C@H]6CC[C@H](OC7CCN(c8ccc9c(c8F)CN(C8CCC(=O)NC8=O)C9=O)CC7)CC6)CC5)ncn4)n[nH]c3cc2F)CC1 (stereo partly shown) [Compound 260, 3-[4-fluoro-1-oxo-5-(4-{[(1r,4r)-4-[(4-{6-[6-fluoro-5-(1-methylcyclopropoxy)-1H-indazol-3-yl]pyrimidin-4-yl}piperazin-1-yl)methyl]cyclohexyl]oxy}piperidin-1-yl)-2,3-dihydro-1H-isoindol-2-yl]piperidine-2,6-dione]	–	–	50 to 70	< 10
COc1c(N2CCN(C[C@H]3CC[C@H](CN4CCN(c5cc(-c6n[nH]c7cnc(OC8(C)CC8)cc67)ncn5)CC4)CC3)CC2)ccc2c1CN(C1CCC(=O)NC1=O)C2=O (stereo partly shown) [Compound 261, 3-[4-methoxy-1-oxo-5-(4-{[(1r,4r)-4-[(4-{6-[5-(1-methylcyclopropoxy)-1H-pyrazolo[3,4-c]pyridin-3-yl]pyrimidin-4-yl}piperazin-1-yl)methyl]cyclohexyl]methyl}piperazin-1-yl)-2,3-dihydro-1H-isoindol-2-yl]piperidine-2,6-dione]	–	–	50 to 70	< 10
COc1c(N2CCC(CN3CCN(CC4CCN(c5cc(-c6n[nH]c7ccc(OC8(C)CC8)cc67)ncn5)CC4)CC3(C)C)CC2)ccc2c1CN(C1CCC(=O)NC1=O)C2=O (stereo not shown) [Compound 262, 3-{5-[4-({2,2-dimethyl-4-[(1-{6-[5-(1-methylcyclopropoxy)-1H-indazol-3-yl]pyrimidin-4-yl}piperidin-4-yl)methyl]piperazin-1-yl}methyl)piperidin-1-yl]-4-methoxy-1-oxo-2,3-dihydro-1H-isoindol-2-yl}piperidine-2,6-dione]	–	–	50 to 70	< 10
C[C@@H]1CN(CC2CCN(c3ccc4c(c3F)CN(C3CCC(=O)NC3=O)C4=O)CC2)CCN1CC1CCN(c2cc(-c3n[nH]c4cnc(OC5(C)CC5)cc34)ncn2)CC1 (stereo partly drawn) [Compound 263, 3-[4-fluoro-5-(4-{[(3R)-3-methyl-4-[(1-{6-[5-(1-methylcyclopropoxy)-1H-pyrazolo[3,4-c]pyridin-3-yl]pyrimidin-4-yl}piperidin-4-yl)methyl]piperazin-1-yl]methyl}piperidin-1-yl)-1-oxo-2,3-dihydro-1H-isoindol-2-yl]piperidine-2,6-dione]	–	–	≥ 70	< 10
COc1c(N2CCC(CN3CCN(CC4CCN(c5cc(-c6n[nH]c7ccc(OC8(C)CC8)cc67)ncn5)CC4)C[C@@H]3C)CC2)ccc2c1CN(C1CCC(=O)NC1=O)C2=O (stereo partly drawn) [Compound 264, 3-[4-methoxy-5-(4-{[(2S)-2-methyl-4-[(1-{6-[5-(1-methylcyclopropoxy)-1H-indazol-3-yl]pyrimidin-4-yl}piperidin-4-yl)methyl]piperazin-1-yl]methyl}piperidin-1-yl)-1-oxo-2,3-dihydro-1H-isoindol-2-yl]piperidine-2,6-dione]	–	–	≥ 70	< 10
COc1c(N2CCN(C[C@H]3CC[C@H](CN4CCN(c5cc(-c6n[nH]c7ccc(OC8(C)CC8)cc67)ncn5)CC4)CC3)CC2)ccc2c1CN(C1CCC(=O)NC1=O)C2=O (stereo partly shown) [Compound 265, 3-[4-methoxy-1-oxo-5-(4-{[(1r,4r)-4-[(4-{6-[5-(1-methylcyclopropoxy)-1H-indazol-3-yl]pyrimidin-4-yl}piperazin-1-yl)methyl]cyclohexyl]methyl}piperazin-1-yl)-2,3-dihydro-1H-isoindol-2-yl]piperidine-2,6-dione]	–	–	≥ 70	< 10
C[C@H]1CN(CC2CCN(c3ccc4c(c3F)CN(C3CCC(=O)NC3=O)C4=O)CC2)CCN1CC1CCN(c2cc(-c3n[nH]c4cnc(OC5(C)CC5)cc34)ncn2)CC1 (stereo partly drawn) [Compound 266, 3-[4-fluoro-5-(4-{[(3S)-3-methyl-4-[(1-{6-[5-(1-methylcyclopropoxy)-1H-pyrazolo[3,4-c]pyridin-3-yl]pyrimidin-4-yl}piperidin-4-yl)methyl]piperazin-1-yl]methyl}piperidin-1-yl)-1-oxo-2,3-dihydro-1H-isoindol-2-yl]piperidine-2,6-dione]	–	–	≥ 70	< 10
